According to PMC8119466, “A screen of FDA-approved drugs identifies inhibitors of protein tyrosine phosphatase 4A3 (PTP4A3 or PRL-3)” (Scientific Reports, 2021):
Structures can show the parent of a compound that is named as a salt. Where two headings read alike, the source gives them in different places.

What was measured:
Type in all cases: biochemical
recombinant PRL-3 = target: T1, recombinant PRL-3 (Homo sapiens, UniProt O75365); test: In vitro phosphatase assay (DiFMUP hydrolysis), PRL-3; note: test concentration or dose not given here
T1 construct: 6xHis (N, cleaved yes); made in house; host or cells: E. coli One Shot BL21 Star

recombinant PRL-1 = target: T2, recombinant PRL-1 (Homo sapiens, UniProt Q93096); test: In vitro phosphatase assay (DiFMUP hydrolysis), PRL-1; note: test concentration or dose not given here
T2 construct: 6xHis (N, cleaved yes); made in house; host or cells: E. coli One Shot BL21 Star
T2 sequence (Q93096 1-173): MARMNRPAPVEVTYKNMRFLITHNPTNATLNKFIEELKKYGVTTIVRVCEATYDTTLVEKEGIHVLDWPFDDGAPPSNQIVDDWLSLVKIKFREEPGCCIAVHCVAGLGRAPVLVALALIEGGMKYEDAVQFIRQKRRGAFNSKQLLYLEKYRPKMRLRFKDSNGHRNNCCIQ

recombinant PRL-2 = target: T3, recombinant PRL-2 (Homo sapiens, UniProt Q12974); test: In vitro phosphatase assay (DiFMUP hydrolysis), PRL-2;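 note: PRL-2 activity read as DiFMUP hydrolysis after 20 min at room temperature with drug, enzyme first pre-reduced at 4 °C for 20 min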
T3 construct: 6xHis (N, cleaved yes); made in house; host or cells: E. coli One Shot BL21 Star
T3 sequence (Q12974 1-167): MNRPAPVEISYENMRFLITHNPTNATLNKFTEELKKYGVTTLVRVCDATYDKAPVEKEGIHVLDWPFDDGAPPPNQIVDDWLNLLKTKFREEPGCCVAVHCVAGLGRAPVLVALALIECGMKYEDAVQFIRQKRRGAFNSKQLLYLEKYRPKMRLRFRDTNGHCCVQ

[1] = FDA-approved drug screen, compared to DMSO

T1 sequence (O75365 whole entry): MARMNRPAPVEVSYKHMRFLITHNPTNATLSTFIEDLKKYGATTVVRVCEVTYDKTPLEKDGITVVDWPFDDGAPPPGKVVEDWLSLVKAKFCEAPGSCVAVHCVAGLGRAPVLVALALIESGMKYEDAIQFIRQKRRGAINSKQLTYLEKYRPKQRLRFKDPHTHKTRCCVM

SMILES | % Phosphatase Activity (compared to DMSO) PRL-3 (recombinant PRL-3; [1]) | % Phosphatase Activity (compared to DMSO) PRL-1 (recombinant PRL-1; [1]) | % Phosphatase Activity (compared to DMSO) PRL-2 (recombinant PRL-2; [1]) | % Phosphatase Activity (compared to DMSO) PRL-3 (recombinant PRL-3) | % Phosphatase Activity (compared to DMSO) PRL-1 (recombinant PRL-1) | % Phosphatase Activity (compared to DMSO) PRL-2 (recombinant PRL-2)
C/C(=C\C(=O)OCCCCCCCCC(=O)O)C[C@@H]1OC[C@H](C[C@@H]2O[C@H]2[C@@H](C)[C@H](C)O)[C@@H](O)[C@H]1O [Mupirocin] | 69% | 92% | 97% |  |  | 
COc1c(C)c2c(c(O)c1C/C=C(\C)CCC(=O)OCCN1CCOCC1)C(=O)OC2 [Mycophenolate Mofetil] | 102% | 131% | 125% |  |  | 
COc1c(C)c2c(c(O)c1C/C=C(\C)CCC(=O)O)C(=O)OC2 [Mycophenolic acid] | 85% | 125% | 100% |  |  | 
COc1ccc2cc(CCC(C)=O)ccc2c1 [Nabumetone] | 68% | 91% | 102% |  |  | 
CC1CCc2c(N3CCC(O)CC3)c(F)cc3c(=O)c(C(=O)O)cn1c23 (stereo not drawn) [Nadifloxacin] | 86% | 133% | 108% |  |  | 
N=C(N)c1ccc2cc(OC(=O)c3ccc(N=C(N)N)cc3)ccc2c1 [Nafamostat Mesylate] | 67% | 204% | 264% |  |  | 
CCOc1ccc2ccccc2c1C(=O)N[C@@H]1C(=O)N2[C@@H]1SC(C)(C)[C@@H]2C(=O)O [Nafcillin Sodium] | 60% | 98% | 108% |  |  | 
COc1ccccc1N1CCN(CC(O)COc2cccc3ccccc23)CC1 (stereo not drawn) [Naftopidil] | 94% | 109% | 111% |  |  | 
CCn1cc(C(=O)O)c(=O)c2ccc(C)nc21 [Nalidixic acid] | 100% | 112% | 122% |  |  | 
O=C1CC[C@@]2(O)[C@H]3Cc4ccc(O)c5c4[C@@]2(CCN3CC2CC2)[C@H]1O5 [Naltrexone HCl] | 95% | 100% | 120% |  |  | 
CCCCCCCCCC(=O)O[C@H]1CC[C@H]2[C@@H]3CCC4=CC(=O)CC[C@@H]4[C@H]3CC[C@]12C [Nandrolone decanoate] | 90% | 93% | 94% |  |  | 
C[C@]12CC[C@H]3[C@@H](CCC4=CC(=O)CC[C@@H]43)[C@@H]1CC[C@@H]2O [Nandrolone] |  |  |  | 78% | 93% | 93%
c1ccc2c(CC3=NCCN3)cccc2c1 [Naphazoline HCl] | 83% | 100% | 102% |  |  | 
CNS(=O)(=O)CCc1ccc2[nH]cc(C3CCN(C)CC3)c2c1 [Naratriptan] | 90% | 103% | 86% |  |  | 
C[C@@H]1C/C=C/C=C/C=C/C=C/[C@H](O[C@@H]2O[C@H](C)[C@@H](O)[C@H](N)[C@@H]2O)C[C@@H]2O[C@](O)(C[C@@H](O)C[C@H]3O[C@@H]3/C=C/C(=O)O1)C[C@H](O)[C@H]2C(=O)O [Natamycin] | 78% | 96% | 82% |  |  | 
CC(C)[C@H]1CC[C@H](C(=O)N[C@H](Cc2ccccc2)C(=O)O)CC1 [Nateglinide] | 73% | 92% | 90% |  |  | 
OC(CNCC(O)C1CCc2cc(F)ccc2O1)C1CCc2cc(F)ccc2O1 (stereo not drawn) [Nebivolol] | 87% | 105% | 81% |  |  | 
[NH2][Pt]1([NH2])[O]CC(=O)[O]1 [Nedaplatin] | 94% | 102% | 97% |  |  | 
Cc1cccc(C)c1NC(=O)CN1CCCC1=O [Nefiracetam] | 88% | 94% | 95% |  |  | 
CN1CCOC(c2ccccc2)c2ccccc2C1 (stereo not drawn) [Nefopam HCl] | 101% | 108% | 87% |  |  | 
COc1nc(N)nc2c1ncn2[C@@H]1O[C@H](CO)[C@@H](O)[C@@H]1O [Nelarabine] |  |  |  | 79% | 93% | 108%
Cc1c(O)cccc1C(=O)N[C@@H](CSc1ccccc1)[C@H](O)CN1C[C@H]2CCCC[C@H]2C[C@H]1C(=O)NC(C)(C)C [Nelfinavir Mesylate] | 79% | 102% | 91% |  |  | 
NC[C@@H]1O[C@H](O[C@H]2[C@@H](O)[C@H](O[C@@H]3[C@@H](O)[C@H](N)C[C@H](N)[C@H]3O[C@H]3O[C@H](CN)[C@@H](O)[C@H](O)[C@H]3N)O[C@@H]2CO)[C@H](N)[C@@H](O)[C@@H]1O.O=S(=O)(O)O [Neomycin sulfate] | 86% | 98% | 103% |  |  | 
NC(=O)Cc1cccc(C(=O)c2ccccc2)c1N [Nepafenac] | 72% | 96% | 93% |  |  | 
CCOc1cc2ncc(C#N)c(Nc3ccc(OCc4ccccn4)c(Cl)c3)c2cc1NC(=O)/C=C/CN(C)C [Neratinib (HKI-272)] | 91% | 110% | 111% |  |  | 
CCN[C@@H]1C[C@H](N)[C@@H](O[C@H]2OC(CN)=CC[C@H]2N)[C@H](O)[C@H]1O[C@H]1OC[C@](C)(O)[C@H](NC)[C@H]1O.CCN[C@@H]1C[C@H](N)[C@@H](O[C@H]2OC(CN)=CC[C@H]2N)[C@H](O)[C@H]1O[C@H]1OC[C@](C)(O)[C@H](NC)[C@H]1O.O=S(=O)(O)O.O=S(=O)(O)O.O=S(=O)(O)O.O=S(=O)(O)O.O=S(=O)(O)O [Netilmicin Sulfate] | 111% | 86% | 110% |  |  | 
Cc1ccnc2c1NC(=O)c1cccnc1N2C1CC1 [Nevirapine] | 111% | 85% | 101% |  |  | 
O=C(CCNNC(=O)c1ccncc1)NCc1ccccc1 [Nialamide] | 96% | 95% | 100% |  |  | 
COC(=O)C1=C(C)NC(C)=C(C(=O)OCCN(C)Cc2ccccc2)C1c1cccc([N+](=O)[O-])c1 (stereo not drawn) [Nicardipine HCl] | 68% | 85% | 80% |  |  | 
